Measured values as given in BigSolDB 2.1.

O=c1cc(CBr)c2ccccc2[nH]1
solubility (mole fraction)
Settings	273.15 K	278.15 K	283.15 K	288.15 K	293.15 K	298.15 K	303.15 K	308.15 K	313.15 K
in 1,4-dioxane	–	–	–	0.000504	0.000625	0.000767	0.00092	0.00111	0.00137
in 2-butanone	0.000321	0.000365	0.000408	0.000455	0.000511	0.00057	0.000634	0.00071	0.000792
in DMF	0.00214	0.00272	0.00329	0.00399	0.00464	0.00542	0.00634	0.00729	0.00828
in DMSO	–	–	–	–	0.0141	0.0185	0.0232	0.0284	0.0338
in NMP	0.0044	0.00524	0.0062	0.00719	0.00827	0.00939	0.0108	0.0125	0.0143
in acetonitrile	8e-05	9e-05	0.000104	0.000118	0.000134	0.00015	0.000171	0.000196	0.000223
in ethanol	0.000173	0.000188	0.000206	0.000227	0.000247	0.000271	0.000301	0.000338	0.000385
in isopropanol	0.000136	0.000154	0.000177	0.0002	0.000224	0.000248	0.000279	0.000316	0.00036
in methanol	0.000113	0.000129	0.000146	0.000165	0.000186	0.000207	0.000234	0.000265	0.000303
in n-butanol	0.00029	0.000311	0.000333	0.000361	0.000391	0.000425	0.000461	0.000508	0.000558
in n-propanol	0.000224	0.00024	0.000262	0.000283	0.000309	0.000341	0.000379	0.000425	0.000476
in toluene	1.5e-05	1.9e-05	2.3e-05	2.8e-05	3.2e-05	3.8e-05	4.3e-05	4.9e-05	5.6e-05
